According to patent publication US8741906B2 (priority 2011, dated 2014):
Like-named read-outs stand apart in the source and are kept apart here.

Assays:
human CB1 receptors = biological target: T1, human CB1 receptors (Homo sapiens, UniProt P21554); assay: functional cAMP assay, human CB1; type: cell-based
T1 construct: expressed in transfected cells; host or cells: CHO cells
How it was run: (§1)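 CHO cells with human CB1 or CB2 were switched to Krebs Ringer bicarbonate buffer with 1 mM IBMX for 30 min at 30 °C, then given compound for 30 min at 30 °C. cAMP was measured by time-resolved FRET against a cAMP standard curve, and EC50 values were calculated.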

human CB2 receptors = biological target: T2, human CB2 receptors (Homo sapiens, UniProt P34972); assay: functional cAMP assay, human CB2; type: cell-based; settings: CHO cells expressing human CB2, cAMP; read-out: human CB2 EC50
T2 construct: expressed in transfected cells; host or cells: CHO cells
T2 sequence (P34972 whole entry): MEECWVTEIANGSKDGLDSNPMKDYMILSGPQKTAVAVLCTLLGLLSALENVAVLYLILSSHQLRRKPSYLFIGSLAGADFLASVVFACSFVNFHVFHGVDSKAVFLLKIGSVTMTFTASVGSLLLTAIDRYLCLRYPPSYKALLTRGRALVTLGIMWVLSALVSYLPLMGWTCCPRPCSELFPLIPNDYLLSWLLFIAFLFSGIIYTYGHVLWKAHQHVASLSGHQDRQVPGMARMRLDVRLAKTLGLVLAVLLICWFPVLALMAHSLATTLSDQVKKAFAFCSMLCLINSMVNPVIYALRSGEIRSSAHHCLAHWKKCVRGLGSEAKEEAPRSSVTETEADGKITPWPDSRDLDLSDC
How it was run: as §1

[1] = CHO cells expressing human CB1, cAMP, read-out: human CB1 EC50

T1 sequence (P21554 whole entry): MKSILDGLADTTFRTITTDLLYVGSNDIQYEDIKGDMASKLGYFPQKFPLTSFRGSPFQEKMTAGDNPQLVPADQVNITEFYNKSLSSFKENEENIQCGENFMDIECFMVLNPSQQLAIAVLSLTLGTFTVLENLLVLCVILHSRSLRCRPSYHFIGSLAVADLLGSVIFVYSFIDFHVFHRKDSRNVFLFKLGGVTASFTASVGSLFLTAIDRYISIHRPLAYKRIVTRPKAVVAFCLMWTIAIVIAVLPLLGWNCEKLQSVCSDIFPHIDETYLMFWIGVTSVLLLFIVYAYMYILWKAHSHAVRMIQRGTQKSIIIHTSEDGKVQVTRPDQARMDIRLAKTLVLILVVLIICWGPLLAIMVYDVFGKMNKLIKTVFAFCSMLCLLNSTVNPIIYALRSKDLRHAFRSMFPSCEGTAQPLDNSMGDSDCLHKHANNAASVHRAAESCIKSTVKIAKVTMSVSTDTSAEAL

| Structure (SMILES) | EC50 (human CB1 receptors; [1]) [nM] | EC50 (human CB2 receptors) [nM] | EC50 (human CB1 receptors) [nM] |
| --- | --- | --- | --- |
| CC(C)(C)c1nc(N2CC[C@](C)(O)C2)c2nnn(Cc3ccccc3Cl)c2n1 [Example 221-a, (S)-1-(5-tert-butyl-3-(2-chlorobenzyl)-3H-[1,2,3]triazolo[4,5-d]pyrimidin-7-yl)-3-methylpyrrolidin-3-ol] | 1800 | 3 | – |
| Cc1noc(C2CCCN2c2nc(C(C)(C)C)nc3c2nnn3Cc2ccccc2Cl)n1 (centres unmarked) [Example 203, 5-tert-Butyl-3-(2-chloro-benzyl)-7-[2-(3-methyl-[1,2,4]oxadiazol-5-yl)-pyrrolidin-1-yl]-3H-[1,2,3]triazolo[4,5-d]pyrimidine] | > 10000 | 53.1 | – |
| CC(Oc1nc(C(C)(C)C)nc2c1nnn2Cc1ccccc1Cl)C1CC1 (centres unmarked) [Example 211, 5-tert-Butyl-3-(2-chloro-benzyl)-7-(1-cyclopropyl-ethoxy)-3H-[1,2,3]triazolo[4,5-d]pyrimidine] | > 10000 | 98.6 | – |
| CC(C)(C)c1nc(N2CCC(F)(F)C2)c2nnn(Cc3c(F)ccc(F)c3Cl)c2n1 [Example 78, 5-tert-Butyl-3-(2-chloro-3,6-difluoro-benzyl)-7-(3,3-difluoro-pyrrolidin-1-yl)-3H-[1,2,3]triazolo[4,5-d]pyrimidine] | 143 | 0.1 | – |
| Cc1nnc(Cn2nnc3c(N4CC[C@@](C)(O)C4)nc(C(C)(C)C)nc32)o1 [Example 225-b, (R)-1-(5-tert-butyl-3-((5-methyl-1,3,4-oxadiazol-2-yl)methyl)-3H-[1,2,3]triazolo[4,5-d]pyrimidin-7-yl)-3-methylpyrrolidin-3-ol] | > 10000 | 175 | – |
| CC(C)(C)c1nc(N2CCC[C@H]2CN)c2nnn(Cc3ccccc3Cl)c2n1 [Example 199, C-{(S)-1-[5-tert-Butyl-3-(2-chloro-benzyl)-3H-[1,2,3]triazolo[4,5-d]pyrimidin-7-yl]-pyrrolidin-2-yl}-methylamine] | – | 183 | > 10000 |
| Cc1cc(C2CCCN2c2nc(C(C)(C)C)nc3c2nnn3Cc2ccccc2Cl)on1 (centres unmarked) [Example 202, 5-tert-Butyl-3-(2-chloro-benzyl)-7-[2-(3-methyl-isoxazol-5-yl)-pyrrolidin-1-yl]-3H-[1,2,3]triazolo[4,5-d]pyrimidine] | > 10000 | 86.8 | – |
| CC(C)(C)c1nc(N2CCC(F)(F)C2)c2nnn(CC(=O)c3ccccn3)c2n1 [Example 127, 2-[5-tert-Butyl-7-(3,3-difluoro-pyrrolidin-1-yl)-[1,2,3]triazolo[4,5-d]pyrimidin-3-yl]-1-pyridin-2-yl-ethanone] | > 10000 | 0.4 | – |
| CC(C)(C)c1nc(N2CCCO2)c2nnn(Cc3ccccc3Cl)c2n1 [Example 40, 5-tert-Butyl-3-(2-chloro-benzyl)-7-isoxazolidin-2-yl-3H-[1,2,3]triazolo[4,5-d]pyrimidine] | > 10000 | 11.6 | – |
| Cc1noc(Cn2nnc3c(N4CC(F)(F)C(F)(F)C4)nc(C(C)(C)C)nc32)n1 [Example 174, 5-tert-Butyl-3-(3-methyl-[1,2,4]oxadiazol-5-ylmethyl)-7-(3,3,4,4-tetrafluoro-pyrrolidin-1-yl)-3H-[1,2,3]triazolo[4,5-d]pyrimidine] | > 10000 | 2 | – |
| C[C@@H](Oc1nc(C(C)(C)C)nc2c1nnn2Cc1ccccc1Cl)C(F)(F)F [Example 216, 5-tert-Butyl-3-(2-chloro-benzyl)-7-((R)-2,2,2-trifluoro-1-methyl-ethoxy)-3H-[1,2,3]triazolo[4,5-d]pyrimidine] | > 10000 | 10.4 | – |
| CC(C)(C)c1nc(N2CCCC2(C)C)c2nnn(Cc3ccccc3Cl)c2n1 [Example 29, 5-tert-Butyl-3-(2-chloro-benzyl)-7-(2,2-dimethyl-pyrrolidin-1-yl)-3H-[1,2,3]triazolo[4,5-d]pyrimidine] | 1630 | 12.5 | – |
| CC(C)(C)c1nc(N2CC3(COC3)C2)c2nnn(Cc3nnnn3C3CC3)c2n1 [Example 183, 5-tert-Butyl-3-(1-cyclopropyl-1H-tetrazol-5-ylmethyl)-7-(2-oxa-6-aza-spiro[3.3]hept-6-yl)-3H-[1,2,3]triazolo[4,5-d]pyrimidine] | > 10000 | 4.2 | – |
| CC(C)(C)c1nc(N2CC[C@H](O)[C@@H]2CO)c2nnn(Cc3cccnc3Cl)c2n1 [Example 172, (2S,3S)-1-[5-tert-Butyl-3-(2-chloro-pyridin-3-ylmethyl)-3H-[1,2,3]triazolo[4,5-d]pyrimidin-7-yl]-2-hydroxymethyl-pyrrolidin-3-ol] | > 10000 | 4.1 | – |
| Cn1nnnc1Cn1nnc2c(N3CC4(COC4)C3)nc(C(C)(C)C)nc21 [Example 182, 5-tert-Butyl-3-(1-methyl-1H-tetrazol-5-ylmethyl)-7-(2-oxa-6-aza-spiro[3.3]hept-6-yl)-3H-[1,2,3]triazolo[4,5-d]pyrimidine] | > 10000 | 13.9 | – |
| CC(C)(C)c1nc(N2C[C@@H](F)C[C@H]2C#N)c2nnn(Cc3ccccc3Cl)c2n1 [Example 46, (2S,4S)-1-[5-tert-Butyl-3-(2-chloro-benzyl)-3H-[1,2,3]triazolo[4,5-d]pyrimidin-7-yl]-4-fluoro-pyrrolidine-2-carbonitrile] | 2310 | 4.4 | – |

| Structure (SMILES) | EC50 (human CB1 receptors; [1]) [nM] | EC50 (human CB2 receptors) [nM] | EC50 (human CB1 receptors) [nM] |
| --- | --- | --- | --- |
| Cc1nnc(Cn2nnc3c(N4CC(F)(F)C(F)(F)C4)nc(C(C)(C)C)nc32)o1 [Example 175, 5-tert-Butyl-3-(5-methyl-[1,3,4]oxadiazol-2-ylmethyl)-7-(3,3,4,4-tetrafluoro-pyrrolidin-1-yl)-3H-[1,2,3]triazolo[4,5-d]pyrimidine] | > 10000 | 1.5 | – |
| CC(=O)N(C)C1CCN(c2nc(C(C)(C)C)nc3c2nnn3Cc2ccccc2Cl)C1 (centres unmarked) [Example 194, N-{1-[5-tert-Butyl-3-(2-chloro-benzyl)-3H-[1,2,3]triazolo[4,5-d]pyrimidin-7-yl]-pyrrolidin-3-yl}-N-methyl-acetamide] | – | 285 | > 10000 |
| CC(C)(C)c1nc(N2CCC(F)(F)C2)c2nnn(CC(O)c3ccccc3)c2n1 (centres unmarked) [Example 88, 2-[5-tert-Butyl-7-(3,3-difluoro-pyrrolidin-1-yl)-[1,2,3]triazolo[4,5-d]pyrimidin-3-yl]-1-phenyl-ethanol] | 391 | 0.9 | – |
| CC(C)(C)c1nc(OC2CCCC2)c2nnn(Cc3ccccc3Cl)c2n1 [Example 212, 5-tert-Butyl-3-(2-chloro-benzyl)-7-cyclopentyloxy-3H-[1,2,3]triazolo[4,5-d]pyrimidine] | > 10000 | 22 | – |
| CC(C)(C)c1nc(N2CCC[C@H](O)C2)c2nnn(Cc3ccccc3Cl)c2n1 [Example 33, (S)-1-[5-tert-Butyl-3-(2-chloro-benzyl)-3H-[1,2,3]triazolo[4,5-d]pyrimidin-7-yl]-piperidin-3-ol] | 764 | 2.5 | – |
| CC(C)(C)c1nc(N2CC[C@H](O)C2)c2nnn(Cc3ccccc3)c2n1 [Example 217, (3S)-1-(3-benzyl-5-tert-butyl-triazolo[4,5-d]pyrimidin-7-yl)pyrrolidin-3-ol] | > 10000 | 3.3 | – |
| CC(C)(C)c1nc(N2CCCC2)c2nnn(Cc3ccccc3Cl)c2n1 [Example 5, 5-tert-Butyl-3-(2-chloro-benzyl)-7-pyrrolidin-1-yl-3H-[1,2,3]triazolo[4,5-d]pyrimidine] | 632 | 0.3 | – |
| CC(C)(C)c1nc(N2CCC(F)(F)C2)c2nnn(CCc3ccccc3)c2n1 [Example 84, 5-tert-Butyl-7-(3,3-difluoro-pyrrolidin-1-yl)-3-phenethyl-3H-[1,2,3]triazolo[4,5-d]pyrimidine] | 451 | 1.2 | – |
| CC(C)(C)c1nc(N2CCC(F)(F)C2)c2nnn(Cc3c(Cl)cccc3Cl)c2n1 [Example 70, 5-tert-Butyl-3-(2,6-dichloro-benzyl)-7-(3,3-difluoro-pyrrolidin-1-yl)-3H-[1,2,3]triazolo[4,5-d]pyrimidine] | 50.8 | 0.1 | – |
| CC(C)(C)c1nc(N2CCC(F)(F)C2)c2nnn([C@H]3CCOC3)c2n1 [Example 109, 5-tert-Butyl-7-(3,3-difluoro-pyrrolidin-1-yl)-3-(S)-tetrahydro-furan-3-yl-3H-[1,2,3]triazolo[4,5-d]pyrimidine] | > 10000 | 0.5 | – |
| CC(C)(C)c1nc(N2CC[C@@](C)(O)C2)c2nnn(Cc3ccccc3Cl)c2n1 [Example 221-b, (R)-1-(5-tert-butyl-3-(2-chlorobenzyl)-3H-[1,2,3]triazolo[4,5-d]pyrimidin-7-yl)-3-methylpyrrolidin-3-ol] | 853 | 7 | – |
| CC(C)(C)c1nc(N2CC[C@@](C)(O)C2)c2nnn(Cc3ccccc3S(C)(=O)=O)c2n1 [Example 223-b, (R)-1-(5-tert-butyl-3-(2-(methylsulfonyl)benzyl)-3H-[1,2,3]triazolo[4,5-d]pyrimidin-7-yl)-3-methylpyrrolidin-3-ol] | 246 | 3 | – |
| CC(C)(C)COc1nc(C(C)(C)C)nc2c1nnn2Cc1ccccc1Cl [Example 213, 5-tert-Butyl-3-(2-chloro-benzyl)-7-(2,2-dimethyl-propoxy)-3H-[1,2,3]triazolo[4,5-d]pyrimidine] | > 10000 | 59.6 | – |
| CC(C)(C)c1nc(N2CCS(=O)(=O)CC2)c2nnn(Cc3ccccc3Cl)c2n1 [Example 21, 5-tert-Butyl-3-(2-chloro-benzyl)-7-(1,1-dioxo-1λ6-thiomorpholin-4-yl)-3H-[1,2,3]triazolo[4,5-d]pyrimidine] | 601 | 2.7 | – |
| CC(C)(C)c1nc(N2CC[C@](C)(O)C2)c2nnn(Cc3ncccc3Cl)c2n1 [Example 224-a, (S)-1-(5-tert-butyl-3-((3-chloropyridin-2-yl)methyl)-3H-[1,2,3]triazolo[4,5-d]pyrimidin-7-yl)-3-methylpyrrolidin-3-ol] | 899 | 1.1 | – |
